{"source": "patent US20240317741A1", "about": "“NAPHTHYRIDINE DERIVATIVE AS ATR INHIBITOR AND METHOD FOR PREPARING SAME” (WIGEN BIOMEDICINE TECHNOLOGY (SHANGHAI) CO., LTD., priority 2021, published 2024)", "key": {"[1]": {"test_system": "MIA PaCa-2 cells", "assay": "In-vitro anti-proliferative activity in combination with gemcitabine against MIA PaCa-2 cells", "format": "cell-based", "details": "in combination with 20 nM gemcitabine, 72 h after dosing", "protocol": "MIA PaCa-2 cells were seeded on a 384-well plate at 3000 cells/well, and 20 nM gemcitabine was added. After overnight adherence culture, DMSO or the compounds serially diluted 1:5 from 100 nM were added. […] The inhibition percentage of viable cells by the compounds was calculated by comparing with the DMSO group, and the IC50 value was calculated."}, "[2]": {"assay": "In vivo pharmacokinetic experiment in mice", "design": "species or system CD-1 female mice", "protocol": "CD-1 female mice aged 7 to 10 weeks were intravenously administered and orally administered at a dose of 2 mg/kg and 10 mg/kg, respectively. The mice were fasted for at least 12 h before the administration and given food 4 h after the administration, and they were given ad libitum access to water during the experiment.\nOn the day of the experiment, animals in the intravenous group were administered the corresponding compound by single injection via the tail vein at an administration volume of 10 mL/kg, and animals in the oral group were administered the corresponding compound by single intragastric injection at an administration volume of 10 mL/kg. The animals were weighed before administration, and the administration volume was calculated according to the body weight. The sample collection time was 0.083 h, 0.167 h, 0.5 h, 1 h, 2 h, 4 h, 8 h and 24 h. About 200 μL of whole blood was collected through the orbital venous plexus at each time point and used to prepare plasma for concentration determination by high performance liquid chromatography-tandem mass spectrometry (LC-MS/MS). The plasma concentrations were processed using a non-compartmental model of Winnolin pharmacokinetic software, and the pharmacokinetic parameters were calculated using a linear-log trapezoidal method."}, "[3]": {"assay": "Liver microsomal stability (mouse)", "format": "in vitro ADME", "details": "mouse liver microsomes, 1 μM compound, NADPH regeneration system, 37° C.", "protocol": "(§1) After 1 μM compound was incubated with 500 µg/mL of human or mouse liver microsomes and a NADPH regeneration system at 37° C. for different times, respectively, LC-MS-MS was used to analyze the remaining amount of the compound and calculate T1/2."}, "[4]": {"test_system": "Human colon cancer HT29 cells", "assay": "In vivo efficacy in HT-29 model, alone and with gemcitabine", "design": "species or system nude mouse", "details": "HT-29 model in nude mice, day 21", "protocol": "After being subcultured, the cells were collected when they reached the desired amount. 1×10^7 HT29 cells were injected into the left dorsal side of each nude mouse, and the animals were randomly grouped for administration after tumors grew to 100-200 mm^3. The groups were as follows: a solvent control group of 6 mice, a single drug group of 15 mg/kg gemcitabine (GMC), and a combination group of 15 mg/kg gemcitabine and a compound. Gemcitabine was administered intraperitoneally with PBS as a vehicle once a week. The compounds were administered 3 days a week and interrupted for 4 days (3 on/4 off), for 21 consecutive days, and the vehicle was a 0.5% MC suspension containing 1% tween-80. On Tuesday and Thursday each week, tumor volumes and body weight of the mice were measured, and the nude mice were sacrificed on day 21 after the administration. […] The toxicity of the compounds was evaluated according to the body weight of the mice."}, "[5]": {"assay": "Pharmacokinetic evaluation in rats", "format": "in vivo, SD female rats", "protocol": "SPF-grade SD female rats aged 7 to 10 weeks were intravenously administered and orally administered at a dose of 1 mg/kg and 10 mg/kg, respectively. The rats were fasted for at least 12 h before the administration and given food 4 h after the administration, and they were given ad libitum access to water during the experiment.\nOn the day of the experiment, animals in the intravenous group were administered the corresponding compound by single injection via the tail vein at an administration volume of 2 mL/kg, and animals in the oral group were administered the corresponding compound by single intragastric injection at an administration volume of 10 mL/kg. The animals were weighed before administration, and the administration volume was calculated according to the body weight. The sample collection time was 0.083 h (only intravenous group), 0.125 h (only oral group), 0.25 h, 0.5 h, 1 h, 2 h, 4 h, 6 h, 8 h and 24 h. About 200 μL of whole blood (EDTA-K2 anticoagulated) was collected via the jugular vein or other suitable vein at each time point and used to prepare plasma for concentration determination by high performance liquid chromatography-tandem mass spectrometry (LC-MS/MS). All animals were suffocated by CO2 after the PK samples were collected at the last time point. The plasma concentrations were processed using a non-compartmental model of Winnolin™ version 8.2 (Pharsight, mountain View, CA) pharmacokinetic software, and the pharmacokinetic parameters were calculated using a linear-log trapezoidal method."}, "[6]": {"test_system": "Human colon cancer LOVO cells", "assay": "In vivo efficacy in LoVo model", "design": "species or system nude mouse", "details": "LoVo model in nude mice, 20 mpk BID PO, days 1-3, 8-10, 15-17 and day 21", "protocol": "After being subcultured, the cells were collected when they reached the desired amount. 1×10^7 LOVO cells were injected into the left dorsal side of each nude mouse, and the animals were randomly grouped for administration after tumors grew to 100-200 mm^3. The groups were as follows: a solvent control group of 8 mice and a compound group of 8 mice. The compounds were administered orally 3 days a week and interrupted for 4 days, for 21 consecutive days. The vehicle was a 0.5% MC suspension containing 1% tween-80. On Tuesday and Thursday each week, tumor volumes and body weight of the mice were measured, and the nude mice were sacrificed on day 21 after the administration. […] The toxicity of the compounds was evaluated according to the body weight of the mice."}, "[7]": {"assay": "Liver microsomal stability (human)", "format": "in vitro ADME", "details": "human liver microsomes, 1 μM compound, NADPH regeneration system, 37° C.", "protocol": "as §1"}, "[8]": {"test_system": "MIA PaCa-2 cells", "assay": "In-vitro anti-proliferative activity against MIA PaCa-2 cells", "format": "cell-based", "details": "72 h after dosing, intracellular ATP content", "protocol": "MIA PaCa-2 cells were seeded on a 384-well plate at 3000 cells/well. After overnight adherence culture, DMSO or the compounds serially diluted 1:5 from 5 μM were added. […] The inhibition percentage of viable cells by the compounds was calculated by comparing with the DMSO group, and the IC50 value was calculated."}, "[9]": {"details": "female, CD-1, mouse, plasma, Oral administration (10 mg/kg)"}, "[10]": {"details": "female, CD-1, mouse, plasma, iv, Injection (2 mg/kg)"}, "[11]": {"details": "compound 20 mpk BID PO 3 on/4 off + GMC 15 mpk QW IP"}, "[12]": {"details": "female, SD, rat, plasma, Oral administration (10 mg/kg)"}, "[13]": {"details": "female, SD, rat, plasma, iv, Injection (1 mg/kg)"}}}
{"molecule": "C[C@@H]1COCCN1c1cc(C2(C#N)CCOCC2)c2ccnc(-c3ccn[nH]3)c2n1", "note": "[Compound 29]", "values": [{"measurement": "IC50", "setting": "[1]", "result": 1.5, "unit": "nM"}, {"measurement": "AUC(0-t)", "setting": "[2]; [9]", "result": 3300, "unit": "ng·h/mL"}, {"measurement": "bioavailability", "setting": "[2]; [9]", "result": 34.5, "unit": "%"}, {"measurement": "half-life", "setting": "[2]; [9]", "result": 46.8, "unit": "min"}, {"measurement": "Cmax", "setting": "[2]; female, CD-1, mouse, plasma, Oral administration (10 mg/kg), read-out: Cmax", "result": 1720, "unit": "ng/mL"}, {"measurement": "Tmax", "setting": "[2]; female, CD-1, mouse, plasma, Oral administration (10 mg/kg), read-out: Tmax", "result": 30, "unit": "min"}, {"measurement": "AUC(0-t)", "setting": "[2]; [10]", "result": 1920, "unit": "ng·h/mL"}, {"measurement": "clearance", "setting": "[2]; [10]", "result": 17.4, "unit": "mL/min/kg"}, {"measurement": "half-life", "setting": "[2]; [10]", "result": 40.2, "unit": "min"}, {"measurement": "Vd", "setting": "[2]; female, CD-1, mouse, plasma, iv, Injection (2 mg/kg), read-out: Vdss", "result": 0.58, "unit": "L/kg"}, {"measurement": "half-life at 1 μM", "setting": "[3]; read-out: T1/2 (min) Mouse", "result": 8.68, "unit": "min"}, {"measurement": "TGI(%)", "setting": "[4]; [11]", "result": 85.3, "unit": "%"}, {"measurement": "TGI(%)", "setting": "[4]; single agent, 20 mpk BID PO, 3on/4off", "result": 49.9, "unit": "%"}, {"measurement": "AUC(0-t)", "setting": "[5]; [12]", "result": 8030, "unit": "ng·h/mL"}, {"measurement": "bioavailability", "setting": "[5]; [12]", "result": 120, "unit": "%"}, {"measurement": "half-life", "setting": "[5]; [12]", "result": 171, "unit": "min"}, {"measurement": "Cmax", "setting": "[5]; female, SD, rat, plasma, Oral administration (10 mg/kg), read-out: Cmax", "result": 1550, "unit": "ng/mL"}, {"measurement": "Tmax", "setting": "[5]; female, SD, rat, plasma, Oral administration (10 mg/kg), read-out: Tmax", "result": 60, "unit": "min"}, {"measurement": "AUC(0-t)", "setting": "[5]; [13]", "result": 669, "unit": "ng·h/mL"}, {"measurement": "clearance", "setting": "[5]; [13]", "result": 24.9, "unit": "mL/min/kg"}, {"measurement": "half-life", "setting": "[5]; [13]", "result": 103, "unit": "min"}, {"measurement": "Vd", "setting": "[5]; female, SD, rat, plasma, iv, Injection (1 mg/kg), read-out: Vdss", "result": 3, "unit": "L/kg"}, {"measurement": "TGI(%)", "setting": "[6]", "result": 83.2, "unit": "%"}, {"measurement": "half-life at 1 μM", "setting": "[7]; read-out: T1/2 (min) Human", "result": 51.4, "unit": "min"}, {"measurement": "IC50", "setting": "[8]; Homo sapiens", "result": "< 1000", "unit": "nM"}]}
{"molecule": "(R)-1-(2-(3-methylmorpholino)-8-(1H-pyrazol-5-yl)-1,7-naphthyridin-4-ylmethyl)cyclohexane-1-carbonitrile [Compound 25]", "values": [{"measurement": "IC50", "setting": "[1]", "result": 0.257, "unit": "nM"}, {"measurement": "AUC0-last", "setting": "[2]; Injection (2 mg/kg)", "result": 203.21, "unit": "ng·h/mL"}, {"measurement": "Cl", "setting": "[2]; Injection (2 mg/kg)", "result": 82.02, "unit": "mL/min/kg"}, {"measurement": "T1/2", "setting": "[2]; Injection (2 mg/kg)", "result": 19.8, "unit": "min"}, {"measurement": "Vdss", "setting": "[2]; Injection (2 mg/kg)", "result": 1.84, "unit": "L/kg"}, {"measurement": "AUC0-last", "setting": "[2]; Oral administration (10 mg/kg)", "result": 1103.1, "unit": "ng·h/mL"}, {"measurement": "Cmax", "setting": "[2]; Oral administration (10 mg/kg)", "result": 455, "unit": "ng/mL"}, {"measurement": "F %", "setting": "[2]; Oral administration (10 mg/kg)", "result": 54.3, "unit": "%"}, {"measurement": "T1/2", "setting": "[2]; Oral administration (10 mg/kg)", "result": 53.4, "unit": "min"}, {"measurement": "Tmax", "setting": "[2]; Oral administration (10 mg/kg)", "result": 60, "unit": "min"}, {"measurement": "T1/2 (min) Mouse", "setting": "[3]", "result": 2.90, "unit": "min"}, {"measurement": "TGI(%)", "setting": "[4]; [11]", "result": 86.1, "unit": "%"}, {"measurement": "AUC0-last", "setting": "[5]; Injection (1 mg/kg)", "result": 269.92, "unit": "ng·h/mL"}, {"measurement": "Cl", "setting": "[5]; Injection (1 mg/kg)", "result": 61.75, "unit": "mL/min/kg"}, {"measurement": "T1/2", "setting": "[5]; Injection (1 mg/kg)", "result": 39, "unit": "min"}, {"measurement": "Vdss", "setting": "[5]; Injection (1 mg/kg)", "result": 2.14, "unit": "L/kg"}, {"measurement": "AUC0-last", "setting": "[5]; Oral administration (10 mg/kg)", "result": 1309.43, "unit": "ng·h/mL"}, {"measurement": "Cmax", "setting": "[5]; Oral administration (10 mg/kg)", "result": 396.33, "unit": "ng/mL"}, {"measurement": "F %", "setting": "[5]; Oral administration (10 mg/kg)", "result": 48.5, "unit": "%"}, {"measurement": "T1/2", "setting": "[5]; Oral administration (10 mg/kg)", "result": 30, "unit": "min"}, {"measurement": "Tmax", "setting": "[5]; Oral administration (10 mg/kg)", "result": 54, "unit": "min"}, {"measurement": "TGI(%)", "setting": "[6]", "result": 84.0, "unit": "%"}, {"measurement": "T1/2 (min) Human", "setting": "[7]", "result": 7.90, "unit": "min"}, {"measurement": "IC50", "setting": "[8]", "result": "< 1000", "unit": "nM"}]}
